What was measured:
Assay in all cases: Kinase selectivity, DiscoverX scanMAX Kinase assay panel (% control)
Assay type in all cases: binding
[1] = biological target: T1, kinases of the scanMAX Kinase assay panel (Homo sapiens, UniProt O00329); conditions: PIK3CD; 1 uM
T1 construct: purchased DiscoverX Co. (contract measurement) scanMAX Kinase assay panel
T1 sequence (O00329 1-1044): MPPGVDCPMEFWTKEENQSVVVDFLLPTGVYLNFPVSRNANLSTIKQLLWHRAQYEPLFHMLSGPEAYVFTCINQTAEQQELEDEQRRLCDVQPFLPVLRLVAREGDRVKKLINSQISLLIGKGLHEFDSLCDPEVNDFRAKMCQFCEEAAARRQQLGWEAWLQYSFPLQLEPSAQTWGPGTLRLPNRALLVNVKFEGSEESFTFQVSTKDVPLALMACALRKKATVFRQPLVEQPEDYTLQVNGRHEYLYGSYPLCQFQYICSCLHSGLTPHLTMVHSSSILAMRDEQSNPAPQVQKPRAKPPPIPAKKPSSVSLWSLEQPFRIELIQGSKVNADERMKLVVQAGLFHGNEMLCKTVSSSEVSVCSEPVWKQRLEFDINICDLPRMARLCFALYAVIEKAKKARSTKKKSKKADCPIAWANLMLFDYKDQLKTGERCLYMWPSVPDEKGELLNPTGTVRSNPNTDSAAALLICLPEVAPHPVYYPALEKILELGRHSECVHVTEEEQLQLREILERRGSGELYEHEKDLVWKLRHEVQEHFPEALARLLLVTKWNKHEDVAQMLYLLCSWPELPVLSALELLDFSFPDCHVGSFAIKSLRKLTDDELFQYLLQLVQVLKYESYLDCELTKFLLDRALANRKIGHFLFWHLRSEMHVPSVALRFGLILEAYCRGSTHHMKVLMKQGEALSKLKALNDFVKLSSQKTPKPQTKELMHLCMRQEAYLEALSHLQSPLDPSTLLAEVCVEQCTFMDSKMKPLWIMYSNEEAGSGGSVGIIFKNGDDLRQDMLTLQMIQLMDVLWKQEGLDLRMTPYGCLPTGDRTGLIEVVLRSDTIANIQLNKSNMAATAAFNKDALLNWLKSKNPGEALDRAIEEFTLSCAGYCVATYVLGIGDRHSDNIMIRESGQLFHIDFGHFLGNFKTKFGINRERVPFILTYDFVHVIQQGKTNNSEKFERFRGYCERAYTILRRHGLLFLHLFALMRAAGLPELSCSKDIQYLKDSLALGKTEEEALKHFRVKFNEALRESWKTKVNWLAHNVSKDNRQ
Outline: (§1)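 Single-point screen, 1 uM cpd in DMSO. % ctrl = (cpd − pos ctrl)/(neg ctrl − pos ctrl)×100; pos ctrl = 0%, DMSO neg ctrl = 100%. Hit cutoff <35%.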

[2] = biological target: T2, kinases of the scanMAX Kinase assay panel (Homo sapiens, UniProt Q8NG66); conditions: NEK11; 1 uM
T2 construct: purchased DiscoverX Co. (contract measurement) scanMAX Kinase assay panel
T2 sequence (Q8NG66 1-645): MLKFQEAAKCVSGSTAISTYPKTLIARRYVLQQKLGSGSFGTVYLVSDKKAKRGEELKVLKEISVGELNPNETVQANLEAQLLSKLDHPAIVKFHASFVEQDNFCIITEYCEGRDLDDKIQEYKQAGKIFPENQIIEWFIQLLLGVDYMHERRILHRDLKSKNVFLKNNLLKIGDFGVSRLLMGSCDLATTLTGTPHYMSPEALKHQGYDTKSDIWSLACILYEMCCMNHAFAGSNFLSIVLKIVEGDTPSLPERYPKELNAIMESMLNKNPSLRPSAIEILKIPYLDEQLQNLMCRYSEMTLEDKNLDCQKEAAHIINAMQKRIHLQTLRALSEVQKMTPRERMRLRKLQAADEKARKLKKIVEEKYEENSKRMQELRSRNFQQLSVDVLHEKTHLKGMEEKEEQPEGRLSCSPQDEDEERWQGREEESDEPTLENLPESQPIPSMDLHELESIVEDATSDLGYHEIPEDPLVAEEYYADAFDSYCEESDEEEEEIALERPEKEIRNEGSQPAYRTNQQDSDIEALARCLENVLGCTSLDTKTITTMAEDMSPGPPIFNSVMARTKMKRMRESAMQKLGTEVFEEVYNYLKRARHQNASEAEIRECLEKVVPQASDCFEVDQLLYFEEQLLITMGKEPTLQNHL
Outline: as §1

[3] = biological target: T3, kinases of the scanMAX Kinase assay panel (Homo sapiens, UniProt Q96L34); conditions: MARK4; 1 uM
T3 construct: purchased DiscoverX Co. (contract measurement) scanMAX Kinase assay panel
T3 sequence (Q96L34 1-752): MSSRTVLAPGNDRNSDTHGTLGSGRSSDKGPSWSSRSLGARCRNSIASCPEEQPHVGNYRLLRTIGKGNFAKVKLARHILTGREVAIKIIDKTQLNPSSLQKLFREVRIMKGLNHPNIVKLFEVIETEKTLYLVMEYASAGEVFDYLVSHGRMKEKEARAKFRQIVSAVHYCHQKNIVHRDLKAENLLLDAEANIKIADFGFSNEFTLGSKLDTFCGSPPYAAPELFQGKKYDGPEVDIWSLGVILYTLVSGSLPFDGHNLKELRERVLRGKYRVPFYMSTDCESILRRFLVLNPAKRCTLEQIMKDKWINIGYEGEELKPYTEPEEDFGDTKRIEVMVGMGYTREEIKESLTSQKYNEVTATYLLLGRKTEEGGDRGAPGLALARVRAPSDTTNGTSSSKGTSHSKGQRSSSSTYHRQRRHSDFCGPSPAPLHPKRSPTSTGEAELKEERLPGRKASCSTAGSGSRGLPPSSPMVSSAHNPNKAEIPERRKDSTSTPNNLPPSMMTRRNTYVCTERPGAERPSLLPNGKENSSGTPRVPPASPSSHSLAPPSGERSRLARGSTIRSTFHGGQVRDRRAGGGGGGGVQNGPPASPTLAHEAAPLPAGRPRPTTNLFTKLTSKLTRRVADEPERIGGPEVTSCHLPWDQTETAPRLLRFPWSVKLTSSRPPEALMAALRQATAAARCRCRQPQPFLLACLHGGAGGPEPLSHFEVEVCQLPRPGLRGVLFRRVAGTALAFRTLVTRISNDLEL
Outline: as §1

Structure (SMILES) | remaining binding at 1 µM [1] [%] | remaining binding at 1 µM [2] [%] | remaining binding at 1 µM [3] [%]
CCNc1nc(Nc2ccc(C(=O)N3CCC(N4CCOCC4)CC3)cc2OC)nc2[nH]cc(C(F)(F)F)c12 [Example 104, (4-((4-(ethylamino)-5-(trifluoromethyl)-7H-pyrrolo[2,3-d]pyrimidine-2-yl)amino)-3-methoxyphenyl)(4-morpholinopiperidine-1-yl)methanone] | 78 | 100 | 100
CC1(Nc2nc(Nc3cnn([C@H]4CCN(C5COC5)C[C@@H]4F)c3Cl)nc3[nH]cc(C#N)c23)CC1 [Example 52, 2-((5-chloro-1-((3S,4S)-3-fluoro-1-(oxetane-3-yl)piperidine-4-yl)-1H-pyrazole-4-yl)amino)((1-methylcyclopropyl)amino)-7H-pyrrolo[2,3-d]pyrimidine-5-carbonitrile] | 9.4 | 100 | 37
CNc1nc(Nc2ccc(C(=O)N3CCOCC3)cc2OC)nc2[nH]cc(C#N)c12 [Example 1, 2-((2-methoxy-4-(morpholine-4-carbonyl)phenyl)amino)-4-(methylamino)-7H-pyrrolo[2,3-d]pyrimidine-5-carbonitrile] | 99 | 70 | 84

From patent US11208412B2 (DAEGU-GYEONGBUK MEDICAL INNOVATION FOUNDATION, priority 2017, dated 2021)
